In patent publication US20060100215A1, “8A,9-dihydro-4aH-isothiazolo[5,4-b]quinoline-3,4-diones and related compounds as anti-infective agents” (priority 2004, published 2006) one finds MIC data, which are given here for 6 compounds.

Values after ≈ are worked out from the molar mass of the structure shown.

Test [1] deals with E. coli ATCC 25922. Description: Minimum inhibitory concentration (MIC) assay, broth microdilution. The class given is cell-based. Conditions: Escherichia coli, ATCC25922, Mueller-Hinton II broth, 37° C., 18 to 24 hours, lowest concentration that inhibited visible growth. The procedure: (§1) The antimicrobial activity of the compounds of the invention may be evaluated by a number of methods, including the following visual minimum inhibitory concentration (MIC) assay. This assay determines the minimum concentration of compound required to inhibit growth of a bacterial strain. Minimum Inhibitory Concentration (MIC) Assay Whole-cell antibacterial activity is determined by broth microdilution using conditions recommended by the NCCLS (see National Committee for Clinical Laboratory Standards. 2001. Performance standards for antimicrobial susceptibility testing: 11th informational supplement. Vol. 21, no. 1, M100-S11. National Committee for Clinical Laboratory Standards, Wayne, Pa.). Test compounds are dissolved in DMSO and diluted 1:50 in Mueller-Hinton II broth (Becton-Dickinson) to produce a 256 μg/ml stock solution. In a 96-well microtiter plate, the compound solution is serially two-fold diluted in Mueller-Hinton II broth. After the compounds are diluted, a 50 μl aliquot of the test organism (˜1×10^6 cfu/mL) is added to each well of the microtiter plate. The final test concentrations ranges from 0.125-128 μg/mL. Inoculated plates are incubated in ambient air at 37° C. for 18 to 24 hours. The organisms selected for testing included laboratory strains S. aureus ATCC 29213 and E. coli ATCC 25922 (strains purchased from American Type Culture Collection, Manassas, Va.). The minimum inhibitory concentration (MIC) is determined as the lowest concentration of compound that inhibited visible growth of the test organism.

In test [2] the test system is S. aureus ATCC 29213. Described as above. The test is classed as cell-based. Particulars: Staphylococcus aureus, ATCC29213, Mueller-Hinton II broth, 37° C., 18 to 24 hours, lowest concentration that inhibited visible growth. The protocol:
as §1

On to `CO/N=C1\CN(c2cc3c(cc2F)c(=O)c2c(=O)[nH]sc2n3C2CC2)CC1CN` (stereo not drawn) [Compound 13], for which the MIC is below 0.05 µg/mL in test [1] and 0.05 µg/mL (≈ 0.12 µM) in test [2].

`CO/N=C1\CN(c2cc3c(cc2F)c(=O)c2c(=O)[nH]sc2n3C2CC2)CC1(C)CN` (stereo not drawn) [Compound 27]: the MIC in test [1] and in test [2] was below 0.05 µg/mL in each case.

For the compound `CON=C1CCN(c2cc3c(cc2F)c(=O)c2c(=O)[nH]sc2n3C2CC2)CC1` [Compound 32, 9-Cyclopropyl-6-fluoro-7-(4-methoxyimino-piperidin-1-yl)-9H-isothiazolo[5,4-b]quinoline-3,4-dione], the minimal inhibitory concentration (MIC) in test [1] and in test [2] was below 0.05 µg/mL each time.

For `CO/N=C1\CN(c2c(F)cc3c(=O)c4c(=O)[nH]sc4n(C4CC4)c3c2OC)CC1CN` (stereo not drawn) [Compound 39, 7-(3-Aminomethyl-4-methoxyimino-pyrrolidin-1-yl)-9-cyclopropyl-6-fluoro-8-methoxy-9H-isothiazolo[5,4-b]quinoline-3,4-dione], the MIC in test [1] was 0.125 µg/mL (≈ 0.279 µM); in test [2] it was below 0.05 µg/mL.

Regarding `CO/N=C1\CN(c2cc3c(cc2F)c(=O)c2c(=O)[nH]sc2n3C2CC2)CC1CO` (stereo not drawn) [Compound 41, 9-Cyclopropyl-6-fluoro-7-(3-hydroxymethyl-4-methoxyimino-pyrrolidin-1-yl)-9H-isothiazolo[5,4-b]quinoline-3,4-dione], the minimum inhibitory concentration (MIC) is below 0.1 µg/mL in test [1] and below 0.05 µg/mL in test [2].

Consider `CO/N=C1\CN(c2nc3c(cc2F)c(=O)c2c(=O)[nH]sc2n3C2CC2)CC1CN` (stereo not drawn) [Compound 42, 7-(3-Aminomethyl-4-methoxyimino-pyrrolidin-1-yl)-9-cyclopropyl-6-fluro-9H-1-thia-2,8,9-triaza-cyclopenta[b]naphtalene-3,4-dione], for which the MIC in test [1] is below 0.125 µg/mL; in test [2], below 0.1 µg/mL.
